For 43 compounds, emission maximum results are on record in the Deep4Chem optical property database.

The structures appear in SMILES notation.

The nature of this data set: solvent given as SMILES.

On to `CC(C)(C)c1ccc(-c2c3ccccc3c3n2[B-](F)(F)[N+]2=Cc4c5ccccc5c(-c5ccc(C(C)(C)C)cc5)n4[B-](F)(F)[N+]2=C3)cc1`, for which the emission maximum came out at 601 nm (in CC#N); 603 nm (in CCCCCC); 607 nm (in CN(C)C=O); 611 nm (in Cc1ccccc1); 608 nm (in ClCCl).
In the case of `C(=C\c1c2ccccc2cc2ccccc12)/c1ccccc1`, the emission maximum (in CC1CCCCC1) was 468 nm and the emission maximum (in CC#N) turned out to be 476 nm.
As to `CCC1=C(C)C2=C(c3c4ccccc4c(-c4ccccc4)c4ccccc34)c3c(C)c(CC)c(C)n3[B-](F)(F)[N+]2=C1C`, the emission maximum turned out to be 536 nm (in CC#N); 539 nm (in CCCCCC); 538 nm (in CCO); 539 nm (in CN(C)C=O); 544 nm (in Cc1ccccc1); 543 nm (in ClCCl).
As for `F[B-]1(F)n2cccc2C(c2ccccc2)=C2C=CC(c3cccc(OC4=[N+]5C(=C(c6ccccc6)c6cc(Br)c(-c7ccc[nH]7)n6[B-]5(F)F)C=C4Br)c3)=[N+]21`, for the setting “in ClC(Cl)Cl”, the emission maximum came out at 644 nm.
In the case of `N#Cc1c(-n2c3ccccc3c3ccccc32)c(F)c(-n2c3ccccc3c3ccccc32)c(-n2c3ccccc3c3ccccc32)c1-n1c2ccccc2c2ccccc21`, the emission maximum is, setting by setting: (in Cc1ccccc1) 453 nm; (in c1ccc([Si](c2ccccc2)(c2ccc(-n3c4ccccc4c4ccccc43)cc2)c2ccc(-n3c4ccccc4c4ccccc43)cc2)cc1) 470 nm.
As to `c1ccc2c(c1)ccc1oc3ccc4cc5oc6ccc7ccc8oc9ccc%10ccccc%10c9c8c7c6c5cc4c3c12`, the emission maximum (in CC#N) is 432 nm.
Compound `Cc1ccc(S(=O)(=O)/N=c2\oc3cccc4c5c(-c6ccccc6)oc6cccc(c(c2-c2ccccc2)c34)c65)cc1` had an emission maximum (in ClC(Cl)Cl) of 560 nm.
With `CC(C)(C)c1ccc2c(c1)c1cc(C(C)(C)C)ccc1n2-c1ccc(C#Cc2ccc(C=C(C#N)C#N)cc2)cc1`, the emission maximum by setting is: (in CC#N) 490 nm; (in CCCCC) 448 nm; (in Cc1ccccc1) 554 nm; (in ClCCl) 534 nm.
In turn, `COc1cccc2cc(C)c3c4ccccc4[nH]c3c12` had an emission maximum (in ClCCl) of 365 nm.
For the setting “in C1CCCCC1”, `c1cc(-c2ccc3c(c2)CCCO3)ccc1-c1ccc2c(c1)CCCO2` gave an emission maximum of 351 nm.
As for `CC(C)c1cc(C(C)C)c(B2c3cc(N4c5ccccc5Oc5ccccc54)ccc3N(c3ccccc3)c3ccc(N4c5ccccc5Oc5ccccc54)cc32)c(C(C)C)c1`, the emission maximum by setting is: (in C1CCOC1) 554.08 nm; (in CCOC(C)=O) 546.26 nm; (in Cc1ccccc1) 510.2 nm; (in ClCCl) 546.26 nm; (in c1cc(-c2cccc(-n3c4ccccc4c4ccccc43)c2)cc(-n2c3ccccc3c3ccccc32)c1) 512 nm.
For the compound `CN(c1ccccc1)c1ccc(N(c2ccccc2)c2ccc3ccc4c(N(c5ccccc5)c5ccc(N(C)c6ccccc6)cc5)ccc5ccc2c3c54)cc1`, the emission maximum (in ClCCl) amounted to 620 nm.
In the case of `COc1nc(Cl)nc(Nc2ccc3c4c(cccc24)C(=O)c2ccccc2-3)n1`, the emission maximum is 537.92 nm (in CC#N); 526.87 nm (in CC(C)=O); 570.13 nm (in CC(C)O); 507.1 nm (in CCCCOCCCC); 520.02 nm (in CCOC(C)=O); 514.14 nm (in CCOCC). This compound also registered an emission maximum (in CO) of 578.03 nm; an emission maximum (in Cc1ccccc1) of 518.13 nm; an emission maximum (in Clc1ccccc1) of 524.93 nm; an emission maximum (in N#Cc1ccccc1) of 526.04 nm; an emission maximum (in O=C1CCCCC1) of 524.11 nm.
As for `Cc1cc(C)c(B(c2c(C)cc(C)cc2C)c2cc3cc(N(C)C)c4ccccc4c3c3c2ccc2ccccc23)c(C)c1`, the emission maximum (in C1CCCCC1) is given as 509 nm; the emission maximum (in C1CCOC1) is 553 nm; the emission maximum (in CC#N) was 565 nm; the emission maximum (in ClC(Cl)Cl) is 536 nm; the emission maximum (in c1ccccc1) was determined as 539 nm.
As to `CN(C)c1ccc(-c2cc3ccc([N+](=O)[O-])cc3c(=O)o2)cc1`, the emission maximum stood at 682 nm (in CC(C)=O); 559 nm (in CCCCO); 621 nm (in CCOC(C)=O); 605 nm (in CN(C)C=O); 605 nm (in CO); 652 nm (in ClC(Cl)Cl).
For `[NH3+]C(Cc1ccc(O)cc1)C(=O)[O-]` (centres undefined), the emission maximum (in O) is 304 nm.
Consider `N#CC1=CC(Br)=CC(C#N)=P1(c1ccccc1)c1ccccc1`, for which the emission maximum (in ClC(Cl)Cl) was 519 nm.
In turn, `COC(=O)c1ccc(/C=C2\C=C(c3ccccc3)NC2=O)cc1` yielded an emission maximum (in C1COCCO1) of 544 nm.
As for `CC(C)(C)OC(=O)c1c(C=Cc2ccccc2)oc(NC2CCCCC2)c1C(=O)OC(C)(C)C`, the emission maximum (in CC#N) was determined as 462 nm.
In the case of `CCCC1(CCC)c2cc(-c3ccc(C(C)(C)C)cc3)ccc2-c2ccc(-c3ccc4c(c3)C(CCC)(CCC)c3cc(-c5ccc6c(c5)C(CCC)(CCC)c5cc(-c7ccc8c(c7)C(CCC)(CCC)c7cc(-c9ccc(C(C)(C)C)cc9)ccc7-8)ccc5-6)ccc3-4)cc21`, the emission maximum (in C1CCCCC1) was determined as 413 nm.
For the compound `c1ccc2c(-c3cc(-c4nccs4)nc(-c4nccs4)c3)cccc2c1`, the emission maximum runs as follows: (in CC#N) 386 nm; (in CCCCCC) 359 nm; (in CO) 422 nm; (in ClC(Cl)Cl) 377 nm.
For `Cc1ccc(Nc2ccc(Nc3ccc(C)cc3)c3c2C(=O)c2ccccc2C3=O)cc1`, the emission maximum is, setting by setting: (in C1CCCCC1) 680 nm; (in C1COCCO1) 684 nm; (in CC(C)=O) 684 nm; (in CCCCCCCCCCO) 682 nm; (in CCCCCCCO) 684 nm; (in CCCCCCO) 682 nm. Also, the emission maximum reads like this: (in CCCCO) 683 nm; (in CCO) 684 nm; (in CN(C)C=O) 686 nm; (in CO) 682 nm; (in CS(C)=O) 689 nm; (in ClC(Cl)(Cl)Cl) 685 nm. The compound also had an emission maximum (in c1ccccc1) of 684 nm.
For the compound `Cc1nc(-c2ccc(N3c4ccccc4C(c4ccccc4)(c4ccccc4)c4ccccc43)cc2)cc(-c2ccc(N3c4ccccc4C(c4ccccc4)(c4ccccc4)c4ccccc43)cc2)n1`, the emission maximum came out at 453 nm (in Cc1ccccc1) and 458 nm (in O=P(c1ccccc1)(c1ccccc1)c1ccc2oc3ccc(P(=O)(c4ccccc4)c4ccccc4)cc3c2c1).
Regarding `F[B-]1(F)n2c(-c3ccccc3)cc(-c3ccccc3)c2N=C2C(c3ccccc3)=CC(c3ccccc3)=[N+]21`, the emission maximum by setting is: (in CC#N) 673 nm; (in ClC(Cl)Cl) 672 nm.
Regarding `COc1ccc(C2=Cc3ccccc3P2(=O)c2ccccc2)cc1` (centres undefined), the emission maximum reads like this: (in C1CCOC1) 443 nm; (in ClCCl) 454 nm.
Consider `COc1ccc(-c2cc3c(ccc4sc5ccc6sc(-c7ccc(C(C)=O)cc7)cc6c5c43)s2)cc1`, for which the emission maximum (in ClCCl) is given as 477 nm.
Same read-out and setting: the same measure for `c1ccc(N2N=C(c3c4ccccc4cc4ccccc34)CC2c2ccc3ccc4cccc5ccc2c3c45)cc1` (centres undefined): 509 nm.
`O=c1c2cc(F)c(N3CCCCC3)cc2oc2cc(N3CCCCC3)c(F)cc12` gave an emission maximum (in CCO) of 457 nm.
With `CC[N+]1(CC)CN2C(=N1)C(C(=O)O)=Cc1cc(C)ccc12`, for the setting “in O”, the emission maximum is listed as 469 nm.
`Cc1cc(C)c(B(c2c(C)cc(C)cc2C)c2cc3ccc4ccccc4c3c3c2cc(N(C)C)c2ccccc23)c(C)c1` displayed an emission maximum (in C1CCCCC1) of 554 nm; an emission maximum (in C1CCOC1) of 601 nm; an emission maximum (in CC#N) of 613 nm; an emission maximum (in ClC(Cl)Cl) of 585 nm; an emission maximum (in c1ccccc1) of 582 nm.
`Cc1ccc2c(c1)C1(c3ccccc3-c3ccccc31)c1cc(C)ccc1N2c1ccc2c(c1)Oc1ccccc1P2(=S)c1ccccc1` (centres undefined) displayed an emission maximum (in Cc1ccccc1) of 443.09 nm.
For the compound `COC(=O)c1nc2c(OCc3ccccc3)nc(N)nc2n1Cc1ccccc1`, the emission maximum reads like this: (in C1COCCO1) 376 nm; (in CC#N) 382 nm; (in CO) 405 nm; (in ClCCl) 371 nm.
Consider `Cc1ccc(C2CC(=O)Oc3c2c2nc4ccccc4nc2c2ccccc32)cc1` (centres undefined), for which the emission maximum (in ClC(Cl)Cl) is given as 440 nm.
For the compound `COc1ccc(-c2cc3c(ccc4sc5ccc6sccc6c5c43)s2)cc1`, the emission maximum (in ClCCl) stood at 409 nm.
The compound `CCOC(=O)CC[N+]1=c2cc3c(cc2CCC1)=Cc1c(c2ccc(N(C)C)cc2oc1=O)O3` had an emission maximum (in CC#N) of 643 nm, an emission maximum (in CO) of 641 nm, an emission maximum (in ClCCl) of 637 nm and an emission maximum (in O) of 644 nm.
Compound `CC(C)(C)c1ccc(-c2ccc3c(-c4ccc(C(C)(C)C)c5ccccc45)cc4c5cc(-c6ccc(C(C)(C)C)c7ccccc67)ccc5c(-c5ccc(C(C)(C)C)c6ccccc56)cc4c3c2)c2ccccc12` displayed an emission maximum (in ClCCl) of 405 nm.
As to `O=C1CC(c2ccc(F)cc2)c2c(c3ccccc3c3nc4ccccc4nc23)O1` (centres undefined), the emission maximum (in ClC(Cl)Cl) is reported as 437 nm.
Consider `c1ccc(-c2cc(-c3ccc(N4c5ccccc5C(c5ccccc5)(c5ccccc5)c5ccccc54)cn3)nc(-c3ccccc3)n2)cc1`, for which the emission maximum (in Cc1ccccc1) came out at 480 nm and the emission maximum (in O=P(c1ccccc1)(c1ccccc1)c1ccccc1Oc1ccccc1P(=O)(c1ccccc1)c1ccccc1) stood at 486 nm.
Regarding `c1ccc2c(c1)-c1ccccc1C21c2ccccc2-c2oc3c(c21)C1(c2ccccc2-c2ccccc21)c1ccccc1-3`, the emission maximum (in C1CCOC1) worked out at 393 nm.
Consider `CC[C@H](C)COc1ccc(C2=C3C(C)=C(I)C(C)=[N+]3[B-](F)(F)n3c(C)c(I)c(C)c32)cc1`, for which the emission maximum (in ClCCl) stood at 557 nm.
In the case of `Cn1c(=O)c(-c2ccccc2)nc2ccccc21`, the emission maximum (in c1ccccc1) is recorded as 424 nm.
As for `CSc1nccc(/C=C/c2ccc(N(c3ccccc3)c3ccc(/C=C/c4ccnc(SC)n4)cc3)cc2)n1`, the emission maximum (in ClCCl) was determined as 540 nm.
For the setting “in CO”, `N[C@@H](Cn1nnc2cc(-c3ccc4ccccc4c3)ccc21)C(=O)O` displayed an emission maximum of 417 nm.
